# Data from US20180244653A1, “SELECTIVE ALPHA-7 NICOTINIC RECEPTOR AGONISTS AND METHODS FOR MAKING AND USING THEM” (THE REGENTS OF THE UNIVERSITY OF CALIFORNIA, priority 2015, published 2018).
# Where “and” joins values, the source holds several entries; their conditions need not be identical. Identical values can stand only once. Entries after “also recorded” stand apart in the source; their conditions may differ. Like-named read-outs stand apart in the source and are kept apart here.
# Assays:
# [1] = biological target: α7/5HT3A chimera receptor (hα7/m5HT3A), used for α7-nAChRs (UniProt P23979+P36544, M226I/T225I); experiment: Intact cell competitive radioligand binding assay ([3H]-(±)-epibatidine, SPA), LGIC-CNiFERs; conditions: read-out: Kd ± SD, α7-nAChRs; >10 = did not pass initial screen at 10 μM
# α7-nAChRs = biological target: T1, α7-nAChRs (Homo sapiens, UniProt P36544); experiment: FRET functional assay (agonist/antagonist) using LGIC-CNiFERs; type: cell-based; conditions: for EC50: in presence of 10 μM PNU-120596, * partial agonist, read-out: Agonist EC50 ± SD, α7; for Functional properties at α7-nAChRs (agonist / antagonist): functional screening and characterization
# T1 construct: expressed in transfected cells; host or cells: HEKtsA201 cells co-expressing TN-XXL
# Method: (§1) Initially, the agonist properties of tested compounds were assessed directly. […] All α7-nAChR functional assays were performed in the presence of PNU-120596, an α7-nAChR positive allosteric modulator (PAM), to increase signal and delay the sensitization state of α7-nAChRs enabling the measurement of more prolonged FRET signals.^29 Compounds having agonist responses of >0.20 were determined for EC50, and compounds having inhibition fraction of >0.50 were determined for KA.^25 EC50>13.3 μM and KA>10 μM which are a screening concentration for agonist and antagonist, respectively were reported compounds not taken for further in the screening of receptor occupation and responses.
# (§2) Agonist and antagonist elicited responses were characterized using the above CNiFER cell expressing Cys-loop ligand-gated ion channel (LGIC) receptors. […] A 96-well black, clear-bottom microplate (Greiner bio-one, Germany) was coated with poly-D-lysine (Sigma-Aldrich, St. Louis, Mo.) 50 μL/well for 30 min and washed out with Phosphate-Buffered Saline (PBS) (Corning, Cellgro, Manassas, Va.) before plating the cells. After plating and incubation at 37° C. for 1 day, the media was replaced with 100 μL of artificial cerebrospinal fluid (aCSF: 121 mM NaCl, 5 mM KCl, 26 mM NaHCO3, 1.2 mM NaH2PO4H2O, 10 mM glucose, 2.4 mM CaCl2, 1.3 mM MgSO4, 5 mM HEPES, pH 7.4) for 4032 and 5HT3A receptors, whereas 10 μM PNU-120596 (Tocris Bioscience, Bristol, UK) in aCSF with 30 min incubation at 37° C. was used for α7-nAChR. The tested compounds were prepared in aCSF for all receptors except α7-nAChR, where 10 μM PNU-120596, a positive allosteric modulator (PAM) was used. The prepared compounds were added in a separate 96-well polypropylene plate (Costar, Corning, N.Y.). Experiments were conducted at 37° C. using 436-nm excitation. Emitted light was collected at 485 nm and 528 nm. Basal fluorescence was recorded for 30 s, followed by addition of 50 μL of ligand (first addition). Measurements were made at 3.84 s intervals for 2 min to measure the agonistic effect. […] Agonist and antagonist properties were sequentially screened at the final concentration of 13.3 and 10 μM, respectively, which differed from the screening concentration from intact cell binding assay (10 μM).
# 5HT3A receptors = biological target: T2, 5HT3A receptors (Mus musculus, UniProt P23979); experiment: as above; type: cell-based; conditions: for Functional properties at 5HT3A receptors (agonist / antagonist, type): functional screening and characterization
# T2 construct: expressed in transfected cells; host or cells: HEK293 cells co-expressing TN-XXL
# T2 sequence (P23979 24-489): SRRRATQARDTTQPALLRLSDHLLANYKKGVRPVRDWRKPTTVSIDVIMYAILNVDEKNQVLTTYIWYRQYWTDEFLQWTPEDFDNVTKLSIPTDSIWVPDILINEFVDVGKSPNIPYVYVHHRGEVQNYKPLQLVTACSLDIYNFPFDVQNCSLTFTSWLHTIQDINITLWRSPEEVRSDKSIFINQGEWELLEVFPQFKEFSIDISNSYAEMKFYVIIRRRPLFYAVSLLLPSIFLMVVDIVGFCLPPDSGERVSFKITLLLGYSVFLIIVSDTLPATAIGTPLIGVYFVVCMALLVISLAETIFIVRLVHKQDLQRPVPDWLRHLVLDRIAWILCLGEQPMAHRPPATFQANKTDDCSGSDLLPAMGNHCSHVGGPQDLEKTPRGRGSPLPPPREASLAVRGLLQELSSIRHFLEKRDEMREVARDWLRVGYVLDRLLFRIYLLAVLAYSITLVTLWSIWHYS
# Method: as §1, §2
# α4β2-nAChRs = biological target: T3, α4β2-nAChRs (Homo sapiens, UniProt P17787+P43681); experiment: as above; type: cell-based; conditions: for Functional properties at α4β2-nAChRs (agonist / antagonist, type): functional screening and characterization
# T3 construct: expressed in transfected cells; host or cells: HEKtsA201 cells co-expressing TN-XXL
# Method: as §1, §2
# [2] = >10 = did not pass initial screen
# [3] = competitive antagonist (^C), >10 = did not pass initial screen, vs 5-HT, read-out: Antagonist KA ± SD, 5HT3A
# [4] = read-out: Agonist EC50 ± SD, 5HT3A
# [5] = read-out: Antagonist KA ± SD, α4β2
# [6] = * partial agonist, >10 = did not pass initial screen, read-out: Agonist EC50 ± SD, 5HT3A
# [7] = competitive antagonist (^C), >10 = did not pass initial screen, vs (±)-epibatidine, read-out: Antagonist KA ± SD, α4β2
# [8] = competitive antagonist (^C), >10 = did not pass initial screen, vs (±)-epibatidine, read-out: Antagonist KA ± SD, α7
# [9] = non-competitive antagonist (^NC), read-out: Antagonist KA ± SD, α7, non-competitive
# [10] = Antagonist KA ± SD, α4β2, competitive antagonist (^C), >10 = did not pass initial screen, vs (±)-epibatidine
# [11] = non-competitive antagonist (^NC)
Compound,EC50 (α7-nAChRs; [2]),"Functional properties at 5HT3A receptors (agonist / antagonist, type) (5HT3A receptors)",Kd (5HT3A receptors; [3]) [µM],EC50 (5HT3A receptors; [4]) [µM],Kd (α4β2-nAChRs; [5]) [µM],other results
"c1cc2cc(-c3cn(CCCCN4CCCCC4)nn3)ccc2[nH]1 [IND3, 5-(1-(4-(Piperidin-1-yl)butyl)-1H-1,2,3-triazol-4-yl)-1H-indole]",0.91 µM,,,,,Kd [1]: 13.8 µM
"c1cc2cc(-c3cn(CCCCN4CCOCC4)nn3)ccc2[nH]1 [IND6, 5-(1-(4-(Morpholin-4-yl)butyl)-1H-1,2,3-triazol-4-yl)-1H-indole]",12.2 µM,,,,,
"c1cc2cc(-c3cn(CCN4CCNCC4)nn3)ccc2[nH]1 [IND9, 5-(1-(2-(Piperazin-1-yl)ethyl)-1H-1,2,3-triazol-4-yl)-1H-indole]",,mix-competitive antagonist,,,,
"c1cc2cc(-c3cn(C4CCCNC4)nn3)ccc2[nH]1 (stereo not shown) [IND10, 5-(1-(Piperidin-3-yl)-1H-1,2,3-triazol-4-yl)-1H-indole]",0.66 µM,mix-competitive antagonist,,,,
"c1cc2cc(-c3cn(CCN4CCCCCC4)nn3)ccc2[nH]1 [IND14, 5-(1-(2-(Azepan-1-yl)ethyl)-1H-1,2,3-triazol-4-yl)-1H-indole]",0.78 µM,competitive antagonism,,,,
"c1cc2c(cc1-c1cn(CCN3CCCCC3)nn1)OCO2 [PPRD1, 1-(2-(4-(Benzo-1,3-dioxol-5-yl)-1,2,3-triazol-1-yl)ethyl)piperidine]",7.4 ± 0.7 µM,,> 10,> 10,> 10,
"Nc1ccc(-c2cn(CCN3CCCCC3)nn2)cc1 [PPRD2, 1-(2-(4-Aminophenyl-1,2,3-triazol-1-yl)ethyl)piperidine]",0.38 µM,,>10,,,EC50 (5HT3A receptors; [6]): > 10 µM; Kd (α4β2-nAChRs; [7]): >10 µM
"COc1ccc(-c2cn(CCN3CCCCC3)nn2)cc1 [PPRD3, 1-(2-(4-(4-Methoxyphenyl)-1,2,3-triazol-1-yl)ethyl)piperidine]",15 µM,,> 10,> 10,> 10,Functional properties at α7-nAChRs (agonist / antagonist) (α7-nAChRs): partial agonists
"Cc1ccc(-c2cn(CCN3CCCCC3)nn2)cc1 [PPRD4, 1-(2-(4-Tolyl-1,2,3-triazol-1-yl)ethyl)piperidine]",3.1 ± 0.8 µM,,> 10,> 10,> 10,
"COc1ccc2cc(-c3cn(CCN4CCCCC4)nn3)ccc2c1 [PPRD6, 1-(2-(4-(6-Methoxynaphthalen-2-yl)-1H-1,2,3-triazol-1-yl)ethyl)piperidine]",> 10 µM,,> 10,> 10,> 10,
"Nc1ccc(-c2cn(CCN3CCCCC3)nn2)cc1 [PPRD8, 1-(2-(4-Aminophenyl-1,2,3-triazol-1-yl)ethyl)piperidine]",2.9 µM,competitive antagonist,39,,,Kd (α4β2-nAChRs; [7]): >10 µM
"Nc1ncnc2c1ncn2Cc1cn(CCN2CCCCC2)nn1 [PPRD10, 9-((1-(2-(Piperidin-1-yl)ethyl)-1,2,3-triazol-4-yl)methyl)-purin-6-amine]",> 10 µM,,> 10,> 10,> 10,Kd (α7-nAChRs; [8]): 11.6 µM; Kd (α7-nAChRs; [9]): 18.9 µM
"COC(=O)c1ccc2[nH]cc(-c3cn(CCN4CCCCC4)nn3)c2c1 [PPRD11, Methyl 3-(1-(2-(piperidin-1-yl)ethyl)-1H-1,2,3-triazol-4-yl)-1H-indole-5-carboxylate]",,,> 10,> 10,6.5 ± 1.7,"Functional properties at α4β2-nAChRs (agonist / antagonist, type) (α4β2-nAChRs): α4β2-nAChR antagonists; also recorded: competitive antagonist; Kd (α7-nAChRs; [8]): 6.6 ± 2.2 µM; Functional properties at α7-nAChRs (agonist / antagonist) (α7-nAChRs): weak and non-selective α7-nAChR antagonists; Kd (α7-nAChRs; [9]): 6.6 ± 1.7 µM"
"Clc1ccc(-c2cn(CCN3CCCCC3)nn2)cc1 [PPRD13, 1-(2-(4-(4-Chlorophenyl)-1,2,3-triazol-1-yl)ethyl)piperidine]",17.6 ± 4.6 µM,,> 10,> 10,> 10,Functional properties at α7-nAChRs (agonist / antagonist) (α7-nAChRs): partial agonists
"COc1ccc(-c2cn(C3CN4CCC3CC4)nn2)cc1 (stereo not shown) [QND3, 3-(4-(4-Methoxyphenyl)-1,2,3-triazol-1-yl)quinuclidine]",0.1 µM,5HT3A receptor agonist properties,,,,EC50 (5HT3A receptors): 5.7 ± 1.7 µM; Kd (α4β2-nAChRs; [10]): > 10 µM
"Cc1ccc(-c2cn(C3CN4CCC3CC4)nn2)cc1 (stereo not shown) [QND4, 3-(4-Tolyl-1,2,3-triazol-1-yl)quinuclidine]",0.2 µM,antagonists and 5HT3A antagonist properties and mix-competitive antagonist,,,,"Antagonist KA ± SD, 5HT3A (5HT3A receptors; competitive antagonist (^C), >10 = did not pass initial screen, vs 5-HT): 0.50 ± 0.27^C, μM; Antagonist KA ± SD, 5HT3A, non-competitive (5HT3A receptors; [11]): 0.53 ± 0.18^NC μM; Kd (α4β2-nAChRs; [7]): >10 µM"
"O=Cc1c[nH]c2ccc(-c3cn(C4CN5CCC4CC5)nn3)cc12 (stereo not shown) [QND5, 5-(1-(Quinuclidin-3-yl)-1,2,3-triazol-4-yl)-indole-3-carbaldehyde]",0.27 µM,,,0.16 ± 0.04,,Kd (α4β2-nAChRs; [10]): > 10 µM
"c1ccc(-c2ccc(-c3cn(C4CN5CCC4CC5)nn3)cc2)cc1 (stereo not shown) [QND7, 3-(4-(Biphenyl-4-yl)-1,2,3-triazol-1-yl)quinuclidine]",,,> 10,> 10,,"Kd (α4β2-nAChRs; [10]): > 10 µM; Kd (α7-nAChRs; Antagonist KA ± SD, α7, competitive antagonist (^C), >10 = did not pass initial screen, vs (±)-epibatidine): 6.7 ± 2.5 µM; Functional properties at α7-nAChRs (agonist / antagonist) (α7-nAChRs): antagonistic properties; also recorded: weak α7-nAChR antagonist; Kd (α7-nAChRs; [9]): 26 ± 10 µM"
"Nc1ncnc2c1ncn2Cc1cn(C2CN3CCC2CC3)nn1 (stereo not shown) [QND10, 9-((1-(Quinuclidin-3-yl)-1,2,3-triazol-4-yl)methyl)-purin-6-amine]",29.5 µM and 30 µM,,> 10,> 10,,Kd (α4β2-nAChRs; [10]): > 10 µM
"COC(=O)c1ccc2[nH]cc(-c3cn(C4CN5CCC4CC5)nn3)c2c1 (stereo not shown) [QND11, Methyl 3-(1-(quinuclidin-3-yl)-1,2,3-triazol-4-yl)-indole-5-carboxylate]",1.61 ± 0.36 µM,antagonists; also recorded: non-competitive antagonist,,,,"Kd (5HT3A receptors; non-competitive antagonist (^NC), read-out: Antagonist KA ± SD, 5HT3A, non-competitive): 0.08 ± 0.01 µM; Kd (α4β2-nAChRs; [10]): 9.3 ± 4.3 µM; Functional properties at α4β2-nAChRs (agonist / antagonist, type) (α4β2-nAChRs): competitive antagonism; Kd (α4β2-nAChRs; read-out: Antagonist KA ± SD, α4β2, non-competitive): 37 ± 22 µM"
"Clc1ccc(-c2cn(C3CN4CCC3CC4)nn2)cc1 (stereo not shown) [QND13, 3-(4-chlorophenyl-1,2,3-triazol-1-yl)quinuclidine]",1.01 µM,5HT3A receptor agonist properties,,,,"EC50 (5HT3A receptors; [6]): 4.9 ± 1.2 µM; Antagonist KA ± SD, α4β2 (α4β2-nAChRs; competitive antagonist (^C), >10 = did not pass initial screen, vs (±)-epibatidine): 11.2 ± 2.6^C, μM; Functional properties at α4β2-nAChRs (agonist / antagonist, type) (α4β2-nAChRs): mix-competitive antagonist; Antagonist KA ± SD, α4β2, non-competitive (α4β2-nAChRs; [11]): 23 ± 6^NC μM"
